This is an account of results in patent publication US20260355325A1, “DIMER COMPOUNDS” (KESMALEA THERAPEUTICS LIMITED, priority 2023, published 2026).

The target in this assay is T1, BRD4 (Homo sapiens, UniProt O60885).
T1 construct: Flp-In LgBiT HEK293 cells; lytic luminescence degradation readout
In words: BRD4 HiBiT Assay (degradation of endogenous BRD4 in HiBiT knock-in Flp-In LgBiT HEK293 cells). It is filed as cell-based. An excerpt: The purpose of the BRD4 HiBiT Assay was to assess the binding affinity of the dimer to BRD4 and subsequent protein degradation.
BRD4 HiBiT cells (Flp-In™ LgBiT and KI HiBiT) were generated by first creating a Flp-In™293 stable cell line, transfecting in the pFRT serial vector containing an integrated Flp recombination target (FRT) site (Thermo Fisher Scientific, Waltham, MA) to HEK293 cells (ATCC, Manassas, VA). The LgBiT expression sequence (Promega Corporation, Madison, WA) was then introduced into the genome via Flp recombinase-mediated DNA recombination at the FRT site. HiBiT sequence (Promega Corporation, Madison, WA) was then knocked in to the endogenous BRD4 protein in the Flp-In™ LgBiT HEK293 cells and successful clones verifying by sequencing. Work on BRD4 HiBiT cell line was performed under license from Promega Corporation (Madison, WA). Cells were maintained in DMEM (Invitrogen™, Waltham, MA) supplemented with 10% FBS (AusGeneX, Molendinar, Australia) and 1% penicillin/streptomycin (Invitrogen™, Waltham, MA) in a humidified incubator at 5% CO2, 37° C.
Compounds were dissolved in DMSO (10 mM), serially diluted from 10 mM to 1.5 nM, and pre-incubated for 2 hours. Exponentially growing cells were seeded at 1×10^4 cells per well of 384 well plate (Corning, New York #3570). Cells were treated with compound for 6 or 48 hours. Following treatment, Nano-Glo® HiBiT Lytic Detection reagent (Promega Corporation, Madison, WA) was added according to manufacturer's instructions, and signal read using BMG CLARIOstar plate reader (BMG Labtech, Ortenburg, Germany). Each data point was performed in duplicate for every experiment. A DC50 value was calculated from linear regression analysis of the plots.
On the technique in general: The HiBiT peptide binds its large partner to form an active luciferase.

Where [1] appears, read: BRD4 degradation in cells at 6-hour timepoint.
The mark [2] stands for this setting: BRD4 degradation in cells at 48-hour timepoint.

Broadly, the DC50 is the midpoint of the concentration-degradation curve. Consider `Cc1sc2c(c1C)C(c1ccc(Cl)cc1)=N[C@@H](CC(=O)NCC[C@]13OB(c4ccccc4CCCC(=O)Nc4cccc5c4C(=O)N(C4CCC(=O)NC4=O)C5=O)O[C@H]1C[C@H]1C[C@@H]3C1(C)C)c1nnc(C)n1-2` (mixture of isomers) [Example 4, 4-(2-((3aR,4R,6R,7aS)-3a-(2-(2-((S)-4-(4-chlorophenyl)-2,3,9-trimethyl-6H-thieno[3,2-f][1,2,4]triazolo[4,3-a][1,4]diazepin-6-yl)acetamido)ethyl)-5,5-dimethylhexahydro-4,6-methanobenzo[d][1,3,2]dioxaborol-2-yl)phenyl)-N-(2-(2,6-dioxopiperidin-3-yl)-1,3-dioxoisoindolin-4-yl)butanamide], for which the 50% degradation concentration (DC50) under setting [1] was < 100 nM.
Take `Cc1ncsc1-c1ccc([C@H](C)NC(=O)[C@@H]2C[C@@H](O)CN2C(=O)[C@H](c2cc(OCc3ccccc3B3O[C@@H]4[C@H]5CC[C@H](C5)[C@]4(CCCNC(=O)C[C@@H]4N=C(c5ccc(Cl)cc5)c5c(sc(C)c5C)-n5c(C)nnc54)O3)no2)C(C)C)cc1` (single isomer, unassigned) [Example 9]: under setting [1], the DC50 is < 100 nM.
For the compound `Cc1cc(C(C(=O)N2C[C@H](O)C[C@H]2C(=O)NCc2ccc(Cl)cc2B2O[C@H]3C[C@H]4C[C@H](C4(C)C)[C@@]3(CCNC(=O)C[C@@H]3N=C(c4ccc(Cl)cc4)c4c(sc(C)c4C)-n4c(C)nnc43)O2)C(C)C)on1` (single isomer, unassigned) [Example 10], under setting [2], the half-maximal degradation concentration (DC50) lay within 1000 to 10000 nM.
`Cc1cc(C(C(=O)N2C[C@H](O)C[C@H]2C(=O)NCc2ccc(Cl)cc2OC[C@]23OB(c4ccccc4CCNC(=O)C[C@@H]4N=C(c5ccc(Cl)cc5)c5c(sc(C)c5C)-n5c(C)nnc54)O[C@H]2C[C@H]2C[C@@H]3C2(C)C)C(C)C)on1` (single isomer, unassigned) [Example 11]: the half-maximal degradation concentration (DC50) under setting [2] fell in the range of 1000 to 10000 nM.
Take `Cc1ncsc1-c1ccc(CNC(=O)[C@@H]2C[C@@H](O)CN2C(=O)C(c2cc(OCc3ccccc3B3O[C@@H]4C[C@@H]5C[C@@H](C5(C)C)[C@]4(CCNC(=O)C[C@@H]4N=C(c5ccc(Cl)cc5)c5c(sc(C)c5C)-n5c(C)nnc54)O3)no2)C(C)C)cc1` (single isomer, unassigned) [Example 13]: the 50% degradation concentration (DC50) under setting [1] was < 100 nM.
Still for that read-out and setting: under `Cc1ncsc1-c1ccc(CNC(=O)[C@@H]2C[C@@H](O)CN2C(=O)[C@@H](NC(=O)CCc2ccccc2B2O[C@H]3C[C@H]4C[C@H](C4(C)C)[C@@]3(CCNC(=O)C[C@@H]3N=C(c4ccc(Cl)cc4)c4c(sc(C)c4C)-n4c(C)nnc43)O2)C(C)(C)C)cc1` [Example 1, (2S,4R)-1-((S)-2-(3-(2-((3aR,4R,6R,7aS)-3a-(2-(2-((S)-4-(4-chlorophenyl)-2,3,9-trimethyl-6H-thieno[3,2-f][1,2,4]triazolo[4,3-a][1,4]diazepin-6-yl)acetamido)ethyl)-5,5-dimethylhexahydro-4,6-methanobenzo[d][1,3,2]dioxaborol-2-yl)phenyl)propanamido)-3,3-dimethylbutanoyl)-4-hydroxy-N-(4-(4-methylthiazol-5-yl)benzyl)pyrrolidine-2-carboxamide] stands < 100 nM; under `Cc1sc2c(c1C)C(c1ccc(Cl)cc1)=N[C@@H](CC(=O)NCCC[C@]13OB(c4ccccc4CCCC(=O)Nc4cccc5c4C(=O)N(C4CCC(=O)NC4=O)C5=O)O[C@H]1C[C@H]1C[C@@H]3C1(C)C)c1nnc(C)n1-2` (stereo partly drawn) [Example 2, 4-(2-((3aR,4R,6R,7aS)-3a-(3-(2-((S)-4-(4-chlorophenyl)-2,3,9-trimethyl-6H-thieno[3,2-f][1,2,4]triazolo[4,3-a][1,4]diazepin-6-yl)acetamido)propyl)-5,5-dimethylhexahydro-4,6-methanobenzo[d][1,3,2]dioxaborol-2-yl)phenyl)-N-(2-(2,6-dioxopiperidin-3-yl)-1,3-dioxoisoindolin-4-yl)butanamide], < 100 nM; under `Cc1ncsc1-c1ccc(CNC(=O)[C@@H]2C[C@@H](O)CN2C(=O)[C@@H](NC(=O)CCc2cccc(F)c2B2O[C@H]3C[C@H]4C[C@H](C4(C)C)[C@@]3(CCNC(=O)C[C@@H]3N=C(c4ccc(Cl)cc4)c4c(sc(C)c4C)-n4c(C)nnc43)O2)C(C)(C)C)cc1` [Example 3, (2S,4R)-1-((2S)-2-(3-(2-((3aR,4R,6R,7aS)-3a-(2-(2-((6S)-4-(4-chlorophenyl)-2,3,9-trimethyl-6H-thieno[3,2-f][1,2,4]triazolo[4,3-a][1,4]diazepin-6-yl)acetamido)ethyl)-5,5-dimethylhexahydro-4,6-methanobenzo[d][1,3,2]dioxaborol-2-yl)-3-fluorophenyl)propanamido)-3,3-dimethylbutanoyl)-4-hydroxy-N-(4-(4-methylthiazol-5-yl)benzyl)pyrrolidine-2-carboxamide], < 100 nM.
Turning to `Cc1ncsc1-c1ccc(CNC(=O)[C@@H]2C[C@@H](O)CN2C(=O)[C@@H](NC(=O)CCc2ccccc2B2O[C@H]3C[C@H]4C[C@H](C4(C)C)[C@@]3(CCCNC(=O)C[C@@H]3N=C(c4ccc(Cl)cc4)c4c(sc(C)c4C)-n4c(C)nnc43)O2)C(C)(C)C)cc1` [Example 5, (2S,4R)-1-((S)-2-(3-(2-((3aR,4R,6R,7aS)-3a-(3-(2-((S)-4-(4-chlorophenyl)-2,3,9-trimethyl-6H-thieno[3,2-f][1,2,4]triazolo[4,3-a][1,4]diazepin-6-yl)acetamido)propyl)-5,5-dimethylhexahydro-4,6-methanobenzo[d][1,3,2]dioxaborol-2-yl)phenyl)propanamido)-3,3-dimethylbutanoyl)-4-hydroxy-N-(4-(4-methylthiazol-5-yl)benzyl)pyrrolidine-2-carboxamide], the DC50 under setting [1] was < 100 nM.
In the case of `Cc1ncsc1-c1ccc([C@H](C)NC(=O)[C@@H]2C[C@@H](O)CN2C(=O)[C@@H](NC(=O)CCc2ccccc2B2O[C@H]3C[C@H]4C[C@H](C4(C)C)[C@@]3(CCNC(=O)C[C@@H]3N=C(c4ccc(Cl)cc4)c4c(sc(C)c4C)-n4c(C)nnc43)O2)C(C)(C)C)cc1` [Example 6, (2S,4R)-1-((S)-2-(3-(2-((3aR,4R,6R,7aS)-3a-(2-(2-((S)-4-(4-chlorophenyl)-2,3,9-trimethyl-6H-thieno[3,2-f][1,2,4]triazolo[4,3-a][1,4]diazepin-6-yl)acetamido)ethyl)-5,5-dimethylhexahydro-4,6-methanobenzo[d][1,3,2]dioxaborol-2-yl)phenyl)propanamido)-3,3-dimethylbutanoyl)-4-hydroxy-N—((S)-1-(4-(4-methylthiazol-5-yl)phenyl)ethyl)pyrrolidine-2-carboxamide], under setting [1], the 50% degradation concentration (DC50) is < 100 nM.
Take `Cc1ncsc1-c1ccc([C@H](C)NC(=O)[C@@H]2C[C@@H](O)CN2C(=O)[C@@H](NC(=O)CCc2ccccc2B2O[C@H]3C[C@H]4C[C@H](C4(C)C)[C@@]3(CCCNC(=O)C[C@@H]3N=C(c4ccc(Cl)cc4)c4c(sc(C)c4C)-n4c(C)nnc43)O2)C(C)(C)C)cc1` [Example 7, (2S,4R)-1-((S)-2-(3-(2-((3aR,4R,6R,7aS)-3a-(3-(2-((S)-4-(4-chlorophenyl)-2,3,9-trimethyl-6H-thieno[3,2-f][1,2,4]triazolo[4,3-a][1,4]diazepin-6-yl)acetamido)propyl)-5,5-dimethylhexahydro-4,6-methanobenzo[d][1,3,2]dioxaborol-2-yl)phenyl)propanamido)-3,3-dimethylbutanoyl)-4-hydroxy-N—((S)-1-(4-(4-methylthiazol-5-yl)phenyl)ethyl)pyrrolidine-2-carboxamide]: under setting [1], the DC50 is < 100 nM.
